Reference: patent publication US20160101177A1, “pH AND LIGHT ACTIVATED ANTI-CANCER DRUGS” (The Board of Trustees of the University of Alabama, priority 2014, published 2016)
Values joined by “and” are separate entries in the source; they are usually repeats but may differ in a detail not shown here. Equal entries are not always repeated.

Columns and labels:
[1] = Kinetics of light-induced ligand photo-dissociation monitored by UV/visible spectroscopy; type: physicochemical; settings: for rate of photodecomposition / ligand loss: pH 7.5 in water
Description: The rate of ligand loss from [Ru(bpy)2(66′bpy(OH)2)]^2+ to give the active anti-cancer agent ([Ru(bpy)2(solvent)2]^2+) can depend greatly on pH and the solvent composition. At pH 5 in aqueous solution, [Ru(bpy)2(66′bpy(OH)2)]^2+ undergoes blue light induced ligand loss which was monitored by UV/visible spectroscopy over one hour (graph (a) in FIG. 8). At this pH, which is below pKa1 and pKa2, the dihydroxybipyridine ligand should be in its native (protonated) state and should correspond to weaker Ru—N bonds (cf. deprotonated ligand), due to a less electron rich ligand as corroborated by crystallographic and computational results described herein. […] This A→B process is consistent with the clean isosbestic point observed, and furthermore, a first or second order process can be ruled out due to non-linear (curved) plots for these rate laws (see supplementary materials).
At this pH, which is above pKa1 and pKa2, the 6,6′-dihydroxybipyridine ligand should be fully deprotonated, which corresponds to stronger Ru—N bonds. Slight fluctuations in the absorbance values can be attributed to noise, and at this pH the rate of photodecomposition appears to be zero. Thus, the deprotonated, more strongly donating ligand appears to block photodecomposition. Thus, this establishes the framework for how a metal-based prodrug can be selectively activated in cancer cells, which have a lower pH as compared to normal cells.
Studies in acetonitrile were done to monitor the process that gave rise to ([Ru(bpy)2(CH3CN)2]^2+) and investigate the influence of solvent on the rates. […] In contrast, upon irradiation with blue light (450 nm), [Ru(bpy)2(66′bpy(OH)2)]^2+ in acetonitrile undergoes decomposition to give [Ru(bpy)2(CH3CN)2)]^2+ and the free ligand, 66′bpy(OH)2 (λmax=343 nm, 421 nm). These products have been prepared independently and their spectra are consistent with those shown for the final result of photodecomposition (graph (c) in FIG. 8). The observed zero order rate constant, kobs=2.6×10^−7 M/s, was determined by fitting an A→B process at 457 nm. The large changes in light absorption show a clean isosbestic point at λ=422 nm and is consistent with an A→B process. Furthermore, the light induced loss of a ligand is consistent with a zero order process that is independent of concentration. The observed rate constant, kobs=2.6(1)×10^−7 M/s, reflects that photodecomposition is nearly complete (87%) in 5 minutes, and it is entirely complete within 20 minutes, graph (c) in FIG. 8. Thus, the reaction proceeds 15 times more quickly in acetonitrile vs. pH 5 aqueous media. This could be attributed to decreased back reaction in acetonitrile, or enhanced stability of the product ligand in acetonitrile since it is better solvated. The product complex is analogous to the likely product of photodecomposition in vivo, namely [Ru(bpy)2(H2O)2)]^2+.

[2] = pH titration by UV/visible absorbance in aqueous buffers (pKa); type: physicochemical; settings: aqueous buffers pH 1 to 13, 25° C.
Experimental: ^1H-NMR spectra were collected on a Varian 300 MHz Fourier Transform spectrometer in deuterated acetonitrile (CD3CN) Infrared spectra were obtained on a Perkin Elmer Spectrum One FT-IR with Universal ATR sampling accessory. UV-visible absorption spectra were collected on a Scinco S-3100 diode-array spectrophotometer at a resolution of 1 nm. Luminescence data was collected on a Horiba Jobin Yvon Fluoromax 3. pH measurements were performed using a VWR SympHony pH meter, utilizing a three point calibration at pH=4.0, 7.0, and 10.0.
UV/visible absorbance data was collected for [Ru(bpy)2(66′bpy(OH)2)]^2+ in aqueous buffers ranging from pH=1 to pH=13, FIG. 6. The deprotonated form of [Ru(bpy)2(66′bpy(OH)2)]^2+ is red shifted compared to the protonated form of the complex. The pH titration data can show two distinct events that yielded a pKa1=5.26 and pKa2=7.27.

[3] = system: human cervical carcinoma (HeLa) cells; test: MTT cell viability assay in HeLa cells with or without 450 nm irradiation; type: cell-based; settings: for IC50: read-out: IC50 (error); for HeLa cell viability, no irradiation: absence of light
Experimental: For cell culture, human cervical carcinoma (HeLa) cells were obtained from the ATCC. The cells were cultured at 37° C. in a 5% CO2, humidified atmosphere in Dulbecco's Modified Eagle Medium (DMEM) supplemented with 10% fetal bovine serum, 100 U/mL penicillin, and 100 μg/ml streptomycin (Invitrogen). Assays were accomplished by seeding cells at a density of 5,000 cells/well in a 96-well plate and incubated at 37° C. overnight. Media was exchanged and then cells were treated with either 100 μM [Ru(bpy)2(66′bpy(OH)2)]^2+, [Ru(bpy)2(44′bpy(OH)2)]^2+, or [Ru(bpy)3]^2+ for 48 h. The medium containing compounds was discarded, cells were washed, and fresh Hank's Balanced Salt Solution was added. In the dark, cells were irradiated using a 450 nm light emitting diode (LED) flashlight positioned 4 cm from the plate for 1 h. The salt solution was exchanged with media and cells were allowed to grow for 24 h. Media containing 20 μL of 3-(4,5-dimethylthiazol-2-yl)-[…] bromide (MTT) (5 mg/mL) was added to each well and incubated for an additional 3 h. The medium was removed. After adding 200 μL of DMSO to each well, the optical densities at 570 nm were determined The p-values were calculated from triplicate data sets using KaleidaGraph software.
Upon irradiation the [Ru(bpy)2(66′bpy(OH)2)]^2+ prodrug can be converted into a cytotoxic agent while in a cell. For example, HeLa cells were plated, incubated with [Ru(bpy)2(66′bpy(OH)2)]^2+, irradiated, and an MTT cell viability assay was used to assess cellular viability. […] The average viability dropped to 93+/−6%. The change is not statistically significant with p greater than 0.05. Similar results were obtained when cells were not treated with the agent and only irradiated for one hour. The viability dropped to 88+/−9%. […] When [Ru(bpy)2(66′bpy(OH)2)]^2+ was incubated with HeLa cells and irradiated the viability dropped to 47+/−12%. This is a statistically significant drop with p less than 0.004 and 0.02 for no ruthenium-complex and no irradiation respectively. Further experiments changing the concentration of [Ru(bpy)2(66′bpy(OH)2)]^2+ in HeLa cells under irradiation can allow for measurement of an inhibitory concentration (IC50). The IC50 for anti-cancer activity is given in Table 1, which are consistent with the data in FIG. 3.

[4] = HeLa cells under irradiation (450 nm, 1 h), MTT
[5] = 100 μM complex for 48 h, untreated non-irradiated cells = 100%

Compound | rate in acetonitrile vs. pH 5 aqueous media ([1]; 450 nm blue light) [times] | time to entirely complete photodecomposition ([1]; acetonitrile, 450 nm blue light) [min] | extent of photodecomposition ([1]; acetonitrile, 450 nm blue light, 5 minutes) [%] | kobs, zero order rate constant of photodecomposition ([1]; acetonitrile, 450 nm blue light, followed at 457 nm) | kobs, zero order rate constant of blue light induced ligand loss ([1]; pH 5 aqueous solution, 450 nm blue light, initial rate 0-300 s, followed at 461 nm) | ligand dissociation ([1]; pH 5 in water, blue light) | rate of photodecomposition / ligand loss ([1]; 450 nm blue light) | rate of photodecomposition / ligand loss ([1]; 450 nm blue light, listed as [Ru(bpy)2(66′bpy(OH)2)2)]^2+) | stability in acetonitrile solution ([1]; protected from light or exposed to 720 nm red light) | pKa1 [2] | pKa2 [2] | HeLa cell viability, with irradiation ([3]; 100 μM complex for 48 h, then 450 nm irradiation for 1 h, untreated non-irradiated cells = 100%) | IC50 [3, 4] [µM] | HeLa cell viability, no irradiation [3, 5] | photo-dissociation of ligand ([1]; blue light) | IC50 (error) [3, 4]
F[P-](F)(F)(F)(F)F.F[P-](F)(F)(F)(F)F.O.Oc1cccc(-c2cccc(O)n2)n1.[Ru+2].c1ccc(-c2ccccn2)nc1.c1ccc(-c2ccccn2)nc1 [[Ru(bpy)2(66′bpy(OH)2)]^2+, [Ru(bpy)2(66′bpy(OH)2)][PF6]2.H2O] | 15 | ≤ 20 | 87 | 2.6(1)×10^−7 M/s | 1.7(2)×10^−8 M/s | readily dissociates | no measurable photodecomposition | zero | stable | 5.26 | 7.27 | 47+/−12% and 47% | 88 | – | – | –
[Cl][Ru][Cl].c1ccc(-c2ccccn2)nc1.c1ccc(-c2ccccn2)nc1.c1ccc(-c2ccccn2)nc1 [[Ru(bpy)3]^2+, [Ru(bpy)3][Cl]2] | – | – | – | – | – | – | – | – | – | – | – | – | 152 | 91+/−4% | – | –
F[P-](F)(F)(F)(F)F.F[P-](F)(F)(F)(F)F.Oc1ccnc(-c2cc(O)ccn2)c1.[Ru+2].c1ccc(-c2ccccn2)nc1.c1ccc(-c2ccccn2)nc1 [[Ru(bpy)2(44′bpy(OH)2)]^2+, [Ru(bpy)2(44′bpy(OH)2)][PF6]2] | – | – | – | – | – | – | – | – | – | – | – | – | > 100 | 91+/−4% | no photo-dissociation | no significant effects
